{"source": "patent US10156560B1", "about": "“Locomotive biological machines” (The Board of Trustees of the University of Illinois, priority 2013, dated 2018)", "assay_type_in_all_cases": "cell-based", "key": {"C2C12 muscle strips [1]": {"tested_on": "C2C12 muscle strips", "test": "Electrically paced actuation of fibrin-based muscle strips", "protocol": "To externally control muscle contraction and bio-bot locomotion, a custom-designed setup (Bajaj et al., 2011, Integr Biol (Camb) 3(9):897-909) was used to stimulate reproducible contraction of excitable cells within the muscle strip with a bipolar electrical pulse train (FIGS. 30A and 30B). The output from a waveform generator was amplified through an AD797 inverting amplifier. A capacitor C was added in series to minimize electrolysis of the media by converting the square pulse to a biphasic pulse; the system was then treated as an RC circuit (FIG. 30B). A 35-mm culture dish was modified to allow Pt electrodes of diameter 0.762 mm to pass through the lid of the dish. The average resistance of the electrical stimulation medium (DMEM without serum) was calculated by measuring the time constant τ from the oscilloscope and dividing by C for each volume at 23° C. and 37° C. The conductivity of the medium was measured using a pH/Conductivity meter (Orion 4-Star, Thermo Scientific), at 23° C. and 37° C. During stimulation, the bio-bot was placed in 4 mL of warm electrical stimulation medium between the positive and ground electrodes, and a current was applied perpendicular to the long axis, with stimulation frequencies up to 10 Hz and never exceeding more than half of the sampling frequency, per the Nyquist criterion. Bio-bots were stimulated with bipolar electrical pulses of 20 V amplitude (21.6 V/cm field strength) and 50 ms pulse width. Simultaneous imaging was achieved by positioning the dish on the stage of a stereoscope. Top-view movies were acquired with a stereomicroscope with a digital microscope camera at 9.2 fps. Side-view movies were acquired using a camcorder (Handycam DCR-SR65, Sony) at 30 fps. Electrodes were sterilized in 70% ethanol and rinsed with PBS between experiments.\nTwitch contractions were observed below 8-10 Hz and tetanus above this upper frequency limit.\nA Kelvin-Voigt viscoelasticity model that correlated the observed cyclic displacement to the contractile force was used to extract the active tension generated by IGF-1 supplemented muscle strips in response to electrical stimulation. The active stress generated by the muscle strip was computed as a function of the strain ε(t) and strain rate dε(t)/dt observed in the hydrogel beam with viscosity η. The time-varying displacement data was converted into time-varying strain, and the following equation was used to compute the resulting active stress: […]\nThe range of active tension during contraction decreased with increasing stimulation frequency, from a dynamic fluctuation of 198.68 μN during 1 Hz stimulation to 109.48 μN during 4 Hz stimulation. The active tension data followed a positive force-frequency relationship in which the magnitude of the active tension exerted by the muscle increased, even while the range of pillar motion decreased."}, "C2C12 muscle strips [2]": {"tested_on": "C2C12 muscle strips", "test": "Lifetime of fibrin muscle strip bio-bots (days until fracture)", "protocol": "Similarly, the lifetime of fibrin muscle strip bio-bots (i.e. days until fracture of the muscle strip) was affected by the presence or absence of 50 ng/mL IGF-1 and/or 1 mg/mL aminocaproic acid. There was a significant increase in the fibrin muscle strip lifetime with the addition of 1 mg/mL aminocaproic acid (25±1.15 days) compared to the control of 10% HS (8.75±7.63)."}, "C2C12 muscle strips [3]": {"tested_on": "C2C12 muscle strips", "test": "Passive tension force of muscle strips from beam deflection", "text": "Using Euler-Bernoulli linear bending theory, a formula was derived relating the observed hydrogel beam deflection to the muscle-generated passive tension force. Assuming negligible rotation in the beam and a small angle approximation, equating the applied moment M to tension P times the moment arm I from the muscle strip to the beam reduced the second-order differential equation to\n[formula] where I is the moment of inertia of the rectangular cross-section and y is the horizontal deflection of the beam. Boundary conditions were applied by assuming zero deflection at ends of the beam (L=0) and maximum deflection δmas at the center (L/2).\n[formula] Beam dimensions, moment arm, and maximum deflection were averaged from 3 measurements of each device using the Measure Tool in ImageJ (NIH). Solving for P yielded the relation:\nFinite element analysis was then used to model and simulate global displacement of the beam and pillars in response to an applied force; the simulated deflection values differed 18-19% from actual measurements.\nTo determine an optimal matrix system for engineered muscle functionality, the passive tension forces generated by collagen- and fibrin-based cell-matrix systems were compared. In muscle strips comprising the same number of cells, a significant increase in passive tension in those containing fibrin (629.3±8.2 μN) compared to collagen (534.2±5.8 μN) was observed. Advantageously, fibrin polymerizes relatively quickly when compared to other ECM proteins, and it can undergo large deformations without breaking (Liu et al., 2006, Science 313(5787):634; Janmey et al., 2009, J R Soc Interface 6(30):1-10). […]\nThis significant increase in force production was likely due to a greater number of differentiated myotubes in muscle strips supplemented with IGF-1. A normalized stress in the muscle strips with IGF-1 was calculated by dividing the passive tension by the cross-sectional area of the tissue, which averaged 1.2±0.04 mm^2 (n=9). […]"}, "C2C12 myoblasts [4]": {"tested_on": "C2C12 myoblasts", "test": "Differentiation, viability (MTS) and proliferation in muscle strips", "protocol": "After 7 days, the myoblasts were induced to differentiate by switching to high-glucose DMEM supplemented with 10% horse serum (Lonza) and 50 ng/mL insulin-like growth factor-1 (IGF-1, Sigma). A protease inhibitor, aminocaproic acid (1 mg/mL, Sigma) was added to the growth and differentiation medium to prevent degradation of the extracellular matrix proteins by the cells. Differentiated, multinucleated myotubes were distributed throughout muscle strips supplemented with IGF-1.\nAn MTS assay was used to evaluate cell viability over time. Muscle strips comprising […] and supplemented with IGF-1 and aminocaproic acid were incubated with MTS (Promega) and phenazine methosulfate (Sigma-Aldrich) in DMEM without phenol red for 4 h at 37° C. Absorbance of MTS formazan product formation was measured at 490 nm using a Synergy HT microplate reader (BioTek) for four different time points and normalized to day 0 (day of cell seeding). The relative absorbance of muscle strips indicated a viability of cells within the muscle strip of 85.76±10.74% and 79.71±14.78% after days 6 and 9, respectively."}, "C2C12 myoblasts [5]": {"tested_on": "C2C12 myoblasts", "test": "Compaction and snapping of collagen-based 3D skeletal muscle strips", "protocol": "C2C12 myoblasts were transfected with pAAV-Cag-Chr2-GFP-2A-Puro with Lipofectamine 2000 (Invitrogen, Carlsbad, Calif.) and grown under puromycin (2.5 μg/mL) selection for 2 weeks. Before cell seeding, bio-bots were positioned beam-down in polymerized holders in a 35-mm cell culture dish and aspirated of excess liquid. A liquid suspension of C2C12 skeletal muscle myoblasts and ECM proteins was added around the pillars of the bio-bot and polymerized via gelation of the matrix proteins. Embedded cells exerted traction forces on the fibrous proteins via integrin attachments to compact the matrix into a muscle strip over time, and the capped pillars acted as a physical anchor for the muscle strip to mimic the in vivo musculoskeletal arrangement in which force transmission occurs from a contracting muscle to bone through a connecting tendon. The ECM was a mixture of i) type I collagen or fibrin and ii) Matrigel™, a composition of laminin, entactin, and type IV collagen. Collagen and fibrin were chosen because naturally-derived hydrogels undergo macro-scale compaction when mixed with cells, leading to a substantially higher cell density and unidirectional cell alignment between the posts. For collagen strips, a cooled suspension of liquid type I collagen from rat tail (0.8, 1.4, or 2.0 mg/mL, BD Biosciences) was mixed with equal parts ice-cold growth medium and neutralized with 0.01 N NaOH. Pelleted cells (1.0-10.0×10^6 cells/mL) were resuspended in ice-cold growth medium and mixed with Matrigel™ (30% v/v, BD Biosciences). Liquid neutralized type I collagen was mixed thoroughly with cells (C2C12 myoblasts (ATCC)) and Matrigel™, and the mixtures were added to each holder. For fibrin muscle strips, an ice-cold cell-matrix solution of Matrigel™ (30% of total cell-matrix volume), fibrinogen (4 mg/mL, Sigma-Aldrich), thrombin from bovine plasma (0.5 U/mg fibrinogen, Sigma-Aldrich), and C2C12s suspended in GM at a concentration of 5×10^6 cells/mL were added to each holder. The post/beam assemblies were then incubated at 37° C. to induce collagen/fibrin polymerization, and growth medium was added to each assembly upon gelation. Time-lapsed compaction was captured with a stereomicroscope (MZ FL III, Leica).\nTo confirm that gel compaction was caused by traction forces from the cells, muscle strips were treated with 50 μg/mL blebbistatin (FIG. 27A). Blebbistatin blocks myosin II activity in the cells, which prevents inward translation of the traction forces. […] The muscle strips treated with IGF-1 (50 ng/mL) compacted rapidly but snapped near the posts within 24 h (FIG. 27C). Thus, the formation of muscle strips was cell-induced through passive tension around the two posts. […]"}}, "note": "Entries after “also recorded” stand apart in the source; their conditions may differ."}
{"compound": "IGF-1: insulin-like growth factor 1, a potent mitogen", "values": [{"measurement": "range of active tension during contraction", "setting": "C2C12 muscle strips [1]; 1 Hz stimulation", "result": 198.68, "unit": "μN"}, {"measurement": "range of active tension during contraction", "setting": "C2C12 muscle strips [1]; 4 Hz stimulation", "result": 109.48, "unit": "μN"}, {"measurement": "Output", "setting": "C2C12 muscle strips [1]; stimulation 1 Hz", "result": "1.01 ± 0.003", "unit": "Contractions/s"}, {"measurement": "Output", "setting": "C2C12 muscle strips [1]; stimulation 2 Hz", "result": "2.01 ± 0.01", "unit": "Contractions/s"}, {"measurement": "Output", "setting": "C2C12 muscle strips [1]; stimulation 4 Hz", "result": "3.95 ± 0.05", "unit": "Contractions/s"}, {"measurement": "decrease in days until fracture compared to the 1 mg/mL ACA condition", "setting": "C2C12 muscle strips [2]; 50 ng/mL", "result": 22.0, "unit": "%"}, {"measurement": "decrease in days until fracture compared to the control", "setting": "C2C12 muscle strips [2]; 50 ng/mL, control 10% HS", "result": 51.43, "unit": "%"}, {"measurement": "increase in passive tension force compared to control without IGF-1", "setting": "C2C12 muscle strips [3]; fibrin-based muscle strips", "result": 70.7, "unit": "%"}, {"measurement": "passive tension force", "setting": "C2C12 muscle strips [3]; fibrin-based muscle strips supplemented with IGF-1", "result": "992.7±34.3", "unit": "μN"}, {"measurement": "passive stress", "setting": "C2C12 muscle strips [3]; muscle strips with IGF-1, tension divided by cross-sectional area", "result": "0.84±0.03", "unit": "kPa"}, {"measurement": "portion of the fibrin-based muscle strip occupied by cells", "setting": "C2C12 myoblasts [4]; 50 ng/mL", "result": "more than doubled"}, {"measurement": "cell proliferation compared to control muscle strips", "setting": "C2C12 myoblasts [4]; day 9", "result": "enhanced cell proliferation"}]}
{"compound": "NCCCCCC(=O)O", "note": "[aminocaproic acid, ε-aminocaproic acid]", "values": [{"measurement": "snapping of collagen muscle strip", "setting": "C2C12 myoblasts [5]; 1 mg/mL in medium", "result": "remained intact"}, {"measurement": "time muscle strip remained stable", "setting": "C2C12 myoblasts [5]; 1 mg/mL in medium", "result": "> 14", "unit": "days"}, {"measurement": "snapping of collagen muscle strip", "setting": "C2C12 myoblasts [5]; 1 mg/mL in medium, listed as EAC", "result": "prevented the muscle strip from snapping"}, {"measurement": "fibrin muscle strip lifetime (days until fracture)", "setting": "C2C12 muscle strips [2]; 1 mg/mL", "result": "25 ± 1.15", "unit": "days"}]}
{"compound": "Cc1ccc2c(c1)C(=O)C1(O)CCN(c3ccccc3)C1=N2", "note": "(centres unmarked) [blebbistatin]", "values": [{"measurement": "compaction of muscle strip", "setting": "C2C12 myoblasts [5]; blebbistatin in medium, 48 hours of culture", "result": "lack of compaction; also recorded: prevented its compaction"}]}
